Data published in ChEMBL document CHEMBL1152195, “The discovery of AZD5597, a potent imidazole pyrimidine amide CDK inhibitor suitable for intravenous dosing” (Bioorg Med Chem Lett, 2008).
In brackets after ≈: the same amount, converted by molar mass. Blank lines part the entries; values can stand above or below the compound they belong to.

Key:
[1] = biological target: Cyclin-dependent kinase 2 (Homo sapiens, UniProt P24941); experiment: Inhibition of CDK2
[2] = biological target: Cyclin-dependent kinase 1 (Homo sapiens, UniProt P06493); experiment: Inhibition of CDK1
LoVo = experiment: Antiproliferative activity against human LoVo cells assessed as inhibition of BrdU incorporation after 48 hrs; type: functional, cell-based
[3] = Dissociation constant, pKa of the compound; type: physicochemical
physchem = details: buffer, pH 7.4
Description: Equilibrium solubility at pH 7.4 after 24 hrs

[4] = Stability in rat plasma; type: ADME, cell-free; details: read-out: Stability
[5] = Stability in dog plasma; type: ADME, cell-free, Canis lupus familiaris; details: read-out: Stability
[6] = Stability in human plasma; type: ADME, cell-free; details: read-out: Stability
[7] = Protein binding in nude mouse plasma assessed as fraction unbound; type: ADME, cell-free; details: read-out: PPB
[8] = Protein binding in Han/Wistar rat plasma assessed as fraction unbound; type: ADME, cell-free; details: read-out: PPB
Plasma = experiment: Protein binding in Beagle dog plasma assessed as fraction unbound; type: ADME, cell-free, Canis lupus familiaris
[9] = Half life in nude mouse at 5 umol/kg, iv; type: ADME, organism-based; details: in vivo
[10] = Half life in Han/Wistar rat at 2.5 umol/kg, iv; type: ADME, organism-based; details: in vivo
[11] = Half life in Beagle dog at 0.2 umol/kg, iv; type: ADME, organism-based, Canis lupus familiaris; details: in vivo
[12] = Clearance in nude mouse at 5 umol/kg, iv; type: ADME, organism-based; details: in vivo
[13] = Clearance in Han/Wistar rat at 2.5 umol/kg, iv; type: ADME, organism-based; details: in vivo
[14] = Clearance in Beagle dog at 0.2 umol/kg, iv; type: ADME, organism-based, Canis lupus familiaris; details: in vivo
[15] = Volume of distribution at steady state in nude mouse at 5 umol/kg, iv; type: ADME, organism-based; details: in vivo, read-out: Vdss
[16] = Volume of distribution at steady state in Han/Wistar rat at 2.5 umol/kg, iv; type: ADME, organism-based; details: in vivo, read-out: Vdss
[17] = Volume of distribution at steady state in Beagle dog at 0.2 umol/kg, iv; type: ADME, organism-based, Canis lupus familiaris; details: in vivo, read-out: Vdss
Mus musculus = experiment: AUC in nude mouse at 5 umol/kg, iv; type: ADME, organism-based, Plasma; details: in vivo
Rattus norvegicus = experiment: AUC in Han/Wistar rat at 2.5 umol/kg, iv; type: ADME, organism-based, Plasma; details: in vivo
Canis familiaris [18] = experiment: AUC in Beagle dog at 0.2 umol/kg, iv; type: ADME, organism-based, Canis lupus familiaris, Plasma; details: in vivo
SW-620 = experiment: Antitumor activity against human SW620 cells xenografted nude mouse assessed as inhibition of tumor volume at 15 mg/kg, ip administered thrice a week for 3 weeks; type: functional; details: SW-620, ip, 504 h, route intraperitoneal
Canis familiaris [19] = species: Canis familiaris; experiment: Clearance in Beagle dog assessed as liver blood flow; type: ADME, organism-based, Canis lupus familiaris; details: in vivo
[20] = Lipophilicity, log D of the compound; type: physicochemical; details: octanol/water
[21] = biological target: Voltage-gated inwardly rectifying potassium channel KCNH2 (Homo sapiens, UniProt Q12809); experiment: Inhibition of human ERG
Cytochrome P450 3A4 = Cytochrome P450 3A4 (Homo sapiens, UniProt P08684); experiment: Inhibition of CYP3A4; type: ADME
Cytochrome P450 2D6 = Cytochrome P450 2D6 (Homo sapiens, UniProt P10635); experiment: Inhibition of CYP2D6; type: ADME
Cytochrome P450 2C9 = Cytochrome P450 2C9 (Homo sapiens, UniProt P11712); experiment: Inhibition of CYP2C9; type: ADME
Cytochrome P450 2C19 = Cytochrome P450 2C19 (Homo sapiens, UniProt P33261); experiment: Inhibition of CYP2C19; type: ADME
Cytochrome P450 1A2 = biological target: T1, Cytochrome P450 1A2 (Homo sapiens, UniProt P05177); experiment: Inhibition of CYP1A2; type: ADME
T1 sequence (P05177 whole entry): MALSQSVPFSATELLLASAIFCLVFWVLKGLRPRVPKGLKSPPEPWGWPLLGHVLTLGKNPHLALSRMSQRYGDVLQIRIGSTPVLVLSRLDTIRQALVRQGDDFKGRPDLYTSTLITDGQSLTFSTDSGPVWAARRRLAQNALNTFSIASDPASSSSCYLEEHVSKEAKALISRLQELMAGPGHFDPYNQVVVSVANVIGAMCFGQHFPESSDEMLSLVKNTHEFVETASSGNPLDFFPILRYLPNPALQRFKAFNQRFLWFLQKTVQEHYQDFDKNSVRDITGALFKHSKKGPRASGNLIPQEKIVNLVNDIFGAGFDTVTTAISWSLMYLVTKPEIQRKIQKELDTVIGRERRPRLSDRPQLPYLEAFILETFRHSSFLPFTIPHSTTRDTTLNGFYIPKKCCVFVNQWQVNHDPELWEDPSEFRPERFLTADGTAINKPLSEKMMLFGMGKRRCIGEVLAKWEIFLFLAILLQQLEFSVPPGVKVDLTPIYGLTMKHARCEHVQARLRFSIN

[22] = Aqueous solubility in saline at pH 5; type: physicochemical; details: read-out: Activity
[23] = Photostability assessed as half life; type: physicochemical
[24] = Hydrolytic stability assessed as half life at pH 4 to 10; type: physicochemical; details: buffer
[25] = biological target: Cyclin-dependent kinase 9 (Homo sapiens) (UniProt P50750); experiment: Inhibition of CDK9
[26] = Protein binding in rat plasma assessed as fraction unbound; type: ADME, cell-free; details: read-out: PPB
[27] = Clearance in rat at 2.5 umol/kg, iv; type: ADME, organism-based; details: in vivo
[28] = Volume of distribution at steady state in rat at 2.5 umol/kg, iv; type: ADME, organism-based; details: in vivo, read-out: Vdss
[29] = AUC in rat at 2.5 umol/kg, iv; type: ADME, organism-based; details: plasma
[30] = Clearance in rat at 1 umol/kg, iv; type: ADME, organism-based; details: in vivo
[31] = Volume of distribution at steady state in rat at 1 umol/kg, iv; type: ADME, organism-based; details: in vivo, read-out: Vdss
[32] = AUC in rat at 1 umol/kg, iv; type: ADME, organism-based; details: plasma

Chain of Cyclin-dependent kinase 1 (P06493 whole entry): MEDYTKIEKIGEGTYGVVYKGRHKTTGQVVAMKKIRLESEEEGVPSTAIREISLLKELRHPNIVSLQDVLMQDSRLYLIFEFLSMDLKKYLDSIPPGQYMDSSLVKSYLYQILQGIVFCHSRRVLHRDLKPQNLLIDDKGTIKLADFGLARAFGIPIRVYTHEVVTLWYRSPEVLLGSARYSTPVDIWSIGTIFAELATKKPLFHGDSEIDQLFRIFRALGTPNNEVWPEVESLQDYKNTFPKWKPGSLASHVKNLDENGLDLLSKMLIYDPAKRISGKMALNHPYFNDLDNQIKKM
Chain of Cyclin-dependent kinase 9 (Homo sapiens) (P50750 whole entry): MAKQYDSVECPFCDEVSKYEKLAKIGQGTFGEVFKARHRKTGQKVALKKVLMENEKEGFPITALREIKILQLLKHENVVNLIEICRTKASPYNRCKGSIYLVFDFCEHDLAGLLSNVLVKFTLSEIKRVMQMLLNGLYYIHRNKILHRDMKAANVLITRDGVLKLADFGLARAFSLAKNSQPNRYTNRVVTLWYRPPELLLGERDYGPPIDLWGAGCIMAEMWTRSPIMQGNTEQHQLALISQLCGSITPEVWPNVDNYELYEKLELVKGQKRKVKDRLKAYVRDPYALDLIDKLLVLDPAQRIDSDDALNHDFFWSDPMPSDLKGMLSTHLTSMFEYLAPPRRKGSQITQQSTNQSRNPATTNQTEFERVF
Chain of Voltage-gated inwardly rectifying potassium channel KCNH2 (Q12809 whole entry): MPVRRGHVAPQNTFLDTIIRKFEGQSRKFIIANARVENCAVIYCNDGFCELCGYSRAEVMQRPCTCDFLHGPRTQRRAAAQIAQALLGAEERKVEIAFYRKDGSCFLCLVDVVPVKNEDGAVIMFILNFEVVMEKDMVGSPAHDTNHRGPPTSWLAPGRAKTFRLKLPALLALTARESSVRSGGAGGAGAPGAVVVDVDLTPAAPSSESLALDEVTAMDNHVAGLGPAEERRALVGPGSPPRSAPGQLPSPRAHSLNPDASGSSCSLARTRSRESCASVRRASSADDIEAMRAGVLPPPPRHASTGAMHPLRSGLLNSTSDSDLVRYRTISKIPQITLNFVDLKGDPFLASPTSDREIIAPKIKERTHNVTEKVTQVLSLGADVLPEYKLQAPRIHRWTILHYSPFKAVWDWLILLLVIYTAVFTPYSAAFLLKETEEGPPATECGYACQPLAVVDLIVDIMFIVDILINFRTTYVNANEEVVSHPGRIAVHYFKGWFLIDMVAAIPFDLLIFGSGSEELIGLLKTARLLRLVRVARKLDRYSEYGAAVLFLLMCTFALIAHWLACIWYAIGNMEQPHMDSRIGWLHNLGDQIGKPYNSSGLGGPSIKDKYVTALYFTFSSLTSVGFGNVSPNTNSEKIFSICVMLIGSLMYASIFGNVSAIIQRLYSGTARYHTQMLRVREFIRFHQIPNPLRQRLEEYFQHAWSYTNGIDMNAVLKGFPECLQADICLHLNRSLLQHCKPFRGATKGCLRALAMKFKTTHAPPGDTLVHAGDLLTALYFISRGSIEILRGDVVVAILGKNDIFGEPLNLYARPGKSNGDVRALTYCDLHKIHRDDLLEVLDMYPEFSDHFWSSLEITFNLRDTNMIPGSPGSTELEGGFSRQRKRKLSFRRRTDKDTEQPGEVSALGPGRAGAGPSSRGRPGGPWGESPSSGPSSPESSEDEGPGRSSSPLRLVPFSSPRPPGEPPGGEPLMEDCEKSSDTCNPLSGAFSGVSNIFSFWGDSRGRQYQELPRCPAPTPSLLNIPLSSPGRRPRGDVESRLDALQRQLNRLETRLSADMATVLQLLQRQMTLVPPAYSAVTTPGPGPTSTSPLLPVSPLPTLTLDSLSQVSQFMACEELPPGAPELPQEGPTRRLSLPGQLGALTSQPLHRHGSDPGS
Chain of Cytochrome P450 3A4 (P08684 whole entry): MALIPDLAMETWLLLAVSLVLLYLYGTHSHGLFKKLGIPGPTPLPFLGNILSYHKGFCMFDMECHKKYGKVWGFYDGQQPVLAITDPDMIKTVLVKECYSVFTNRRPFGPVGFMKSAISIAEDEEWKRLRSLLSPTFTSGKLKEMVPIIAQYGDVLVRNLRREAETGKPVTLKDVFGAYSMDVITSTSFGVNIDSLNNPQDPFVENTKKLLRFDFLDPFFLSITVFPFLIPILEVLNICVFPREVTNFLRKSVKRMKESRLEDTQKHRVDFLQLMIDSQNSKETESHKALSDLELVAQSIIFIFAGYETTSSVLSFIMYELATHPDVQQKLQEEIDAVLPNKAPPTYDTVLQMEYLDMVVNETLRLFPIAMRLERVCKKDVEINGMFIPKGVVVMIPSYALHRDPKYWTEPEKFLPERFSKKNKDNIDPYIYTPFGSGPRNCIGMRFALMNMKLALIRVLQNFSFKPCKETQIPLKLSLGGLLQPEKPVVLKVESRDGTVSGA
Chain of Cytochrome P450 2C19 (P33261 whole entry): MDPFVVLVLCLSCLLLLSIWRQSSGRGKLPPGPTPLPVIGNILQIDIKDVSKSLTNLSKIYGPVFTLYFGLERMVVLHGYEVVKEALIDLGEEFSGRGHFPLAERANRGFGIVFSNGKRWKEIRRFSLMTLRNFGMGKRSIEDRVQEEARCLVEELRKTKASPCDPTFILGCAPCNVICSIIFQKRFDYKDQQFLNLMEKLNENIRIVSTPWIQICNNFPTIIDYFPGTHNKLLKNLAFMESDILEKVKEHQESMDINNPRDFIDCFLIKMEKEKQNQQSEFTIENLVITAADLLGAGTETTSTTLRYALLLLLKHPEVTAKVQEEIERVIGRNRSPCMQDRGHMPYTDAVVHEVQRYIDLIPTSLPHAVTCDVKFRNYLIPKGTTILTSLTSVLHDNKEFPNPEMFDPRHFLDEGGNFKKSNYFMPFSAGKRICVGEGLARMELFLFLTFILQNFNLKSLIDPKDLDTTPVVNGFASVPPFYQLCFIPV
Chain of Cytochrome P450 2C9 (P11712 whole entry): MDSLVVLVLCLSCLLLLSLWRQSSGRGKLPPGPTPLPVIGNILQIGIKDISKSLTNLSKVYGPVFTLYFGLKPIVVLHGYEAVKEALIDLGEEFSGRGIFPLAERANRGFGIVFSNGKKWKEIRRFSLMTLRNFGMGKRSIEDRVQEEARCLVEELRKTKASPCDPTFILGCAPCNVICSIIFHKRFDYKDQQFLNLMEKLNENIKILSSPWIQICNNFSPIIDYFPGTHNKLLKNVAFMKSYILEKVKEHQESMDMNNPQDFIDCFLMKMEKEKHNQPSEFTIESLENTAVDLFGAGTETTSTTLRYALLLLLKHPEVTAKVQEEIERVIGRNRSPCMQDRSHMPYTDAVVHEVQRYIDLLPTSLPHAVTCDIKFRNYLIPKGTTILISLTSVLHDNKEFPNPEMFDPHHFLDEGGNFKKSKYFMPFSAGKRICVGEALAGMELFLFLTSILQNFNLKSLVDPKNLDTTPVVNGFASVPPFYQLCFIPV
Chain of Cytochrome P450 2D6 (P10635 whole entry): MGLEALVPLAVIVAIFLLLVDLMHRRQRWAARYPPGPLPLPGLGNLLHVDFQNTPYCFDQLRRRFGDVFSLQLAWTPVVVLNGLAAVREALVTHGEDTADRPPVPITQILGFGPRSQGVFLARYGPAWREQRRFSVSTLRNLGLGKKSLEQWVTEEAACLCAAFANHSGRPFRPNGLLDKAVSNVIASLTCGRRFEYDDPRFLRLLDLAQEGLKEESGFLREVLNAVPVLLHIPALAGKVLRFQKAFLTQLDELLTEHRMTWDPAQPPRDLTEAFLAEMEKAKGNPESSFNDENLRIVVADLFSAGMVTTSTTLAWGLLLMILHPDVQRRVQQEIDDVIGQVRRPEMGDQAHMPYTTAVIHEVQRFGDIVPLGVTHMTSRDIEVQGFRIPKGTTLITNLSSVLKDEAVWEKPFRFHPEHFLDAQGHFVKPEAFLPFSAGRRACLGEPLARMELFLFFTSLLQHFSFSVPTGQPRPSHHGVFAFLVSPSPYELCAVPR

SMILES: Cc1ncc(-c2nc(Nc3ccc(C(=O)NCCN(C)C)c(F)c3)ncc2F)n1C(C)C
IC50 [1]: 2 nM
IC50 [2]: < 1 nM
IC50 (LoVo): 2 nM
pKa [3]: 8.6
Activity [25]: 0.003 µM
logD [20]: 2.3
fraction unbound [26]: 0.07
Activity [21]: > 65 µM
clearance [27]: 24 mL/min/kg
Vd [28]: 9.8 L/kg
AUC [29]: 0.8 µM·h
solubility thermodynamic at 24 h (physchem): > 2700 µM

SMILES: Cc1ncc(-c2nc(Nc3ccc(C(=O)N4CC[C@H](N(C)C)C4)cc3)ncc2F)n1C(C)C
IC50 [2]: 11 nM
IC50 (LoVo): 37 nM
pKa [3]: 7.4
Activity [25]: 0.005 µM
logD [20]: 2.1
fraction unbound [26]: 0.04
Activity [21]: 33 µM
clearance [27]: 23 mL/min/kg
Vd [28]: 3.4 L/kg
AUC [29]: 0.8 µM·h
solubility thermodynamic at 24 h (physchem): > 2100 µM

SMILES: CN[C@H]1CCN(C(=O)c2ccc(Nc3nccc(-c4cnc(C)n4C(C)C)n3)cc2)C1
IC50 [1]: 2 nM
IC50 [2]: 9 nM
IC50 (LoVo): 180 nM

SMILES: Cc1ncc(-c2ccnc(Nc3ccc(C(=O)N4CCN(C)CC4)cc3)n2)n1C(C)C
IC50 [1]: 9 nM
IC50 [2]: 71 nM
IC50 (LoVo): 520 nM
pKa [3]: 7

SMILES: Cc1ncc(-c2ccnc(Nc3ccc(C(=O)N4CC[C@H](NC5CC5)C4)cc3)n2)n1C(C)C
IC50 [1]: < 1 nM
IC50 [2]: 100 nM
IC50 (LoVo): 250 nM

SMILES: Cc1ncc(-c2nc(Nc3ccc(C(=O)NC4CCN(C)CC4)cc3)ncc2F)n1C(C)C
IC50 [1]: 36 nM
IC50 [2]: 50 nM
IC50 (LoVo): 320 nM
solubility thermodynamic at 24 h (physchem): > 2500 µM

SMILES: Cc1ncc(-c2ccnc(Nc3ccc(C(=O)NCCN(C)C)c(F)c3)n2)n1C(C)C
IC50 [2]: 29 nM
IC50 (LoVo): 3 nM
solubility thermodynamic at 24 h (physchem): > 1900 µM

SMILES: Cc1ncc(-c2nc(Nc3ccc(C(=O)N4CC[C@@H](N(C)C)C4)cc3)ncc2F)n1C(C)C
IC50 [2]: 11 nM
IC50 (LoVo): 70 nM
solubility thermodynamic at 24 h (physchem): > 2400 µM

SMILES: Cc1ncc(-c2nc(Nc3ccc(C(=O)N4CCCN(C)CC4)cc3)ncc2F)n1C(C)C
IC50 [1]: 2 nM
IC50 [2]: 5 nM
IC50 (LoVo): 40 nM
pKa [3]: 8.1
Activity [25]: 0.012 µM
logD [20]: 2
fraction unbound [26]: 0.07
Activity [21]: > 32 µM
clearance [30]: 28 mL/min/kg
Vd [31]: 1.5 L/kg
AUC [32]: 0.3 µM·h
solubility thermodynamic at 24 h (physchem): > 2600 µM

SMILES: Cc1ncc(-c2nc(Nc3ccc(C(=O)NC4CCN(C)CC4)c(F)c3)ncc2F)n1C(C)C
IC50 [1]: 1 nM
IC50 [2]: 12 nM
IC50 (LoVo): 80 nM
pKa [3]: 8.8
Activity [25]: 0.013 µM
logD [20]: 2.4
fraction unbound [26]: 0.06
clearance [27]: 16 mL/min/kg
Vd [28]: 5.2 L/kg
AUC [29]: 1.3 µM·h
solubility thermodynamic at 24 h (physchem): 270 µM (≈ 127 µg/mL)

Continued, in another order:

IC50 [1]: 18 nM
IC50 [2]: 130 nM
IC50 (LoVo): 170 nM
pKa [3]: 6.9
solubility thermodynamic at 24 h (physchem): 60 µM (≈ 26.3 µg/mL)
SMILES: Cc1ncc(-c2nc(Nc3ccc(C(=O)N4CCN(C)CC4)cc3)ncc2F)n1C(C)C

half-life [4]: > 18 h
half-life [5]: > 18 h
half-life [6]: > 18 h
fraction unbound [7]: 0.16
fraction unbound [8]: 0.04
PPB (Plasma): > 67%
half-life [9]: 3.4 h
half-life [10]: 3.6 h
half-life [11]: 32.3 h
clearance [12]: 35 mL/min/kg
clearance [13]: 30 mL/min/kg
clearance [14]: 19 mL/min/kg
Vd [15]: 5.1 L/kg
Vd [16]: 6.4 L/kg
Vd [17]: 40.4 L/kg
AUC (Mus musculus): 2.4 µM·h
AUC (Rattus norvegicus): 1.38 µM·h
AUC (Canis familiaris [18]): 0.18 µM·h
%hepatic blood flow (Canis familiaris [19]): 58%
IC50 [1]: 2 nM
IC50 [2]: 2 nM
IC50 (LoVo): 39 nM
logD [20]: 1.45
Activity (Cytochrome P450 3A4): > 10 µM
Activity (Cytochrome P450 2D6): > 10 µM
Activity (Cytochrome P450 2C9): > 10 µM
Activity (Cytochrome P450 2C19): > 10 µM
Activity (Cytochrome P450 1A2): > 10 µM
solubility [22]: > 50 µM
half-life [23]: > 24 h
half-life [24]: > 100 days
SMILES: CN[C@H]1CCN(C(=O)c2ccc(Nc3ncc(F)c(-c4cnc(C)n4C(C)C)n3)cc2)C1
inhibition in vivo at 15 mg/kg (SW-620): 55%
Activity [21]: 95 µM

IC50 [1]: 11 nM
IC50 [2]: 150 nM
IC50 (LoVo): 200 nM
solubility thermodynamic at 24 h (physchem): > 2200 µM
SMILES: Cc1ncc(-c2ccnc(Nc3ccc(C(=O)NC4CCN(C)CC4)c(F)c3)n2)n1C(C)C

IC50 [1]: 4 nM
IC50 [2]: 120 nM
IC50 (LoVo): 62 nM
SMILES: CCCN(C)[C@H]1CCN(C(=O)c2ccc(Nc3nccc(-c4cnc(C)n4C(C)C)n3)cc2)C1

IC50 [1]: 37 nM
IC50 [2]: 180 nM
IC50 (LoVo): 2100 nM
SMILES: Cc1ncc(-c2ccnc(Nc3ccc(C(=O)NC4CCN(C)CC4)cc3)n2)n1C(C)C
